Assay results: patent US9943499B2, “Lipase inhibitors for the treatment of pancreatitis and organ failure” (priority 2011, dated 2018)
Entries after “also recorded” stand apart in the source; their conditions may differ. Read-outs that look alike come from different tables or passages of the source.

What was measured:
[1] = test system: Male Wistar rats; assay: Intraductal infusion of glyceryl trilinoleate (GTL) pancreatitis; type: in vivo; details: for mortality: intraductal GTL alone, GTL+orlistat 75 mg/ml, GTL+cetilistat 25 mg/ml, followed to day 5; for gross pancreatic appearance: hemorrhages and necrosis: intraductal GTL with or without lipase inhibitor
Method: Experiments were performed using a model, the technique of which is established and well described in rats (1, 2, 4, 7). This involves infusion of agents into the pancreatic duct to cause acute pancreatitis (1, 2, 4, 7). We will refer to this technique as “intraductal infusion”. We compared the severity of pancreatic damage and survival of rats after intraductal infusion of Glyceryl trilinoleate with and without the lipase inhibitor orlistat. In addition, we used a different lipase inhibitor-cetilistat (3, 6), and studied its efficacy in improving survival of rats in intraductal infusion pancreatitis induced with Glyceryl trilinoleate (GTL).
Male Wistar rats (250-350 gm), were anesthetized. Intraductal infusion of 0.1 ml (n=5) or 0.2 ml (n=5) of GTL (Sigma-Aldrich corporation) alone or GTL+orlistat (Caymen chemical, Ann Arbor, Mich.) (75 mg/ml, 0.1 ml n=5 or 0.2 ml n=5) or GTL+cetilistat (Jinan Wedo Industrial Co., Ltd., Jinan City, Shandong China) (25 mg/ml, 0.2 ml, n=10) was done as described previously (1, 2, 4, 7). All animals were given pain control (buprenorphine 200 mcg/kg BID), Cefazolin (100 mg/kg), and 10 cc saline subcutaneously BID as per the IACUC protocol. These were followed for survival.

[2] = test system: acinar cells; type: cell-based; details: for prevention of linoleic acid induced LDH leakage: 300 μM LA, 30 μM BAPTA or 1 mM EGTA, 90 minutes and 3 hours
From the text: Harvesting cells: Primary acinar cells from wild type mice (C57B6) were harvested and used as described previously. Viability, confirmed by trypan blue exclusion, was >95%. […] These were used in the individual experiments. Data presented is representative of 3 or more experiments.
Acinar culture: Acinar culture was done as described previously to study inflammatory mediator upregulation.
Calcium imaging: Acinar cells loaded with fura-2AM as described previously on 35-mm glass bottom culture dishes (MatTek corporation, Ashland, Mass.) were imaged on temperature-controlled motorized stage of an Olympus IX81 inverted microscope (Olympus America Inc, Melville, N.Y.) with a 20×0.70 NA objective and a QImaging Retiga EXi CCD camera (QImaging, Burnaby, Canada). Baseline images were taken, and cells with extremely bright or dim fluorescence were omitted. Fatty acids (linolenic, linoleic, oleic, stearic, and palmitic, 100-1200 μM final concentration) were added, and cytosolic calcium levels [Cai] were determined by alternate excitation at 340 nm and 380 nm, measuring emission at 510 nm. […] Image acquisition was with the MetaMorph 7.5 Imaging System (Molecular Devices, Downington, Pa.) using the MetaMorph 6.3 software. The 340/380 emission ratio were averaged for 7-25 acini per field, with background subtraction. Data presented is a mean from separate experiments.
Visceral fat triglyceride composition: The visceral fat triglyceride composition analysis was done at Kennedy Krieger Institute (Baltimore, Md.). Briefly, total lipids were extracted by the method of Folch. The total lipids were weighed and then separated into 4 fractions by column chromatography on silicic acid. The second fraction has the mono-, di- and triglycerides, the non-esterified fatty acids, and ceramides; 400 micrograms of the second fraction was taken and purified, and non-esterified acids, triglycerides, and diglycerides were collected by thin-layer chromatography on Silica Gel G plates. The fatty acids were derivatized and analyzed by GCMS as their pentafluorbenzylbromide esters. ATP levels, cytochrome C release, and % LDH leakage were measured as previously described. Apoptosis was measured by active caspase-3 [western blotting, activity assays (Enzcheck, Invitrogen, Carlsbad, Calif.)], TUNEL assays, and Hoechst dye nuclear incorporation (8 mg/ml Hoechst 33342 added for 15 minutes after treatment). […] Results were reported as % of cells with given nuclear changes. These were counter stained with PI (1 μM) to stain necrotic cells (FIG. 7A, B, C) and imaged with a Zeiss Meta dual fluorescence confocal microscope. PI-positive cells were counted as late apoptosis or necrosis. […] Autophagy was studied by western blotting for LC3-I and II. RNA was extracted using Trizol (Invitrogen, Carlsbad, Calif.). mRNA levels of TNF-α, CXCL1, and CXCL2 were measured as described previously using real time-PCR performed on an ABI Prism 7000 Sequence Detection System (Applied Biosystems, Foster City, Calif.) on proprietary Taqman Gene Expression assay reagents (Applied Biosystems). Mitochondrial complex assays and citrate synthase assay were done as described previously.

[3] = in combination with GTL, at necropsy

For `CCCCC/C=C\C/C=C\CCCCCCCC(=O)OCC(COC(=O)CCCCCCC/C=C\C/C=C\CCCCC)OC(=O)CCCCCCC/C=C\C/C=C\CCCCC` [GTL, glyceryl trilinoleate], the mortality ([1]; dead/total) was 10/10, the first day mortality ([1]; dead/total, intraductal GTL without further treatment) was 10/10 and the “gross pancreatic appearance: hemorrhages and necrosis” value [1] was “caused severe hemorrhages, and near total necrosis of the gland within 24 hours”.

`CCCCCCCCCCCCCCCCOc1nc2ccc(C)cc2c(=O)o1` [cetilistat] was tested, and the mortality ([1]; dead/total) was 2/10, the “lung injury (TUNEL positive nuclei)” value [1, 3] was “nearly completely prevented” and the “renal injury (TUNEL positive nuclei)” value [1, 3] was “nearly completely prevented; also recorded: absence of staining TUNEL positive nuclei”. For the same molecule, the “lung injury (TUNEL positive nuclei)” value ([1]; in combination with GTL, at necropsy, listed as Cetilistat) was “absence of TUNEL positive nuclei” and the “gross pancreatic appearance: hemorrhages and necrosis” value [1] was “prevented the hemorrhages and necrosis up to 5 days”.

`C/C=C(/C)C(=O)O[C@H]1C(C)=C2[C@H]([C@@H]1OC(=O)CCCCCCC)[C@@](C)(OC(C)=O)C[C@H](OC(=O)CCC)[C@@]1(O)[C@H]2OC(=O)[C@@]1(C)O` [thapsigargin] was tested, and the “600 μM LA induced intra-acinar calcium (Cai) increase” value ([2]; 1 μM thapsigargin, EGTA 1 mM) was “prevents”.

`O=C(O)CN(CC(=O)O)c1ccccc1OCCOc1ccccc1N(CC(=O)O)CC(=O)O` [BAPTA] was tested, and the “prevention of linoleic acid induced LDH leakage” value [2] was “partially prevented”.

In the case of `CCCCC/C=C\C/C=C\CCCCCCCC(=O)O` [linoleic acid], the “acinar mRNA levels of TNF-α, CXCL1 and CXCL2” value ([2]; 200 μM fatty acid (sub-lethal)) is reported as “increased” and the “autophagy (LC3-II) and apoptosis (active caspase3)” value ([2]; 300 μM linoleic acid) is reported as “not activated”.

In the case of `O=C(O)CN(CCOCCOCCN(CC(=O)O)CC(=O)O)CC(=O)O` [EGTA], the “prevention of linoleic acid induced LDH leakage” value [2] is reported as “ineffective”, the LDH leakage ([2]; 300 μM linoleic acid, EGTA 1 mM, 90 minute) is reported as 21.2±8.3% and the LDH leakage ([2]; 300 μM linoleic acid, EGTA 1 mM, 3 hour) is reported as 54.6±6.4%.
